In patent US12365658B2, “Benzothia(di)azepine compounds and their use as bile acid modulators” (Albireo AB, priority 2021, dated 2025):

Test system: Caco-2 cells
Assay: Bidirectional permeability assay (Caco-2 cells)
Assay type: in vitro ADME
Settings: 10 μM in FaSSIF buffer, 120 minutes; for Permeability (Caco-2) Papp A2B: absorptive direction (A2B); for Permeability (Caco-2) Papp B2A: secretory direction (B2A)
Method: Bidirectional Permeability Assay (Caco-2 Cells)
Caco-2 cells (Evotec) were seeded at a density of 70,000 cells/well in Millicell® 24-well cell culture insert plates and maintained in an incubator (37° C., 5% CO2, 95% RH) for 21 days with media change on alternate days.
Stock solutions (10 mM) of the test compounds, atenolol (low permeability marker), propranolol (high permeability marker) and digoxin (substrate for P-gp transport pathway) were prepared in dimethylsulfoxide (DMSO). An intermediate stock solution (1 mM) was prepared by diluting 10 μL of 10 mM master stock solution with 90 μL of neat DMSO. A working stock solution (10 μM) was prepared by diluting 50 μL of 1 mM with 4950 μL of FaSSIF buffer. Post addition of compounds to the FaSSIF, samples were subjected to sonication for 2 hours, and centrifuged at 4000 RPM for 30 minutes at 37° C. The 4 mL of resultant supernatant was directly used in the assay. The final DMSO concentration in the transport experiments was 1%.
On the day of assay, Caco-2 monolayers were washed twice with transport buffer (HBSS, pH 7.4) and pre-incubated for 30 min (37° C., 5% CO2, 95% RH) in an incubator. The electrical resistance of the monolayers was measured with a Millicell®-ERS system. Monolayers with trans-epithelial electrical resistance (TEER) values greater than 350 ohm·cm^2 were selected for the assay.
The assay was conducted in absorptive direction (A2B) and secretory (B2A) directions. Transport experiments were initiated by addition of transport assay buffer (FaSSIF buffer prepared in HBSS) consisting of compounds to the donor compartment (apical chamber A-B; basolateral chamber B-A) in duplicate (n=2) wells. Drug free HBSS buffer (pH 7.4) containing 1% bovine serum albumin (BSA) was introduced to the receiver (A-B-basolateral; B-A-Apical) compartments. The volumes of apical and basolateral compartments were 0.4 and 0.8 mL, respectively. After adding dosing solution, plates were incubated in an incubator for 120 minutes at 37° C. After 120 minutes, donor and receiver samples were collected and matrix matched (1:1, 30 μL study sample+30 μL blank buffer) with the opposite buffer. Dosing samples matrix matched (1:1, 30 μL study sample+30 μL blank buffer) with the opposite buffer. Samples were processed by adding acetonitrile containing internal standard (60 μL study sample+200 μL acetonitrile containing internal standard-Tolbutamide, 500 ng/mL). Samples were vortexed and centrifuged at 4000 rpm for 10 minutes. The obtained supernatant (100 μL) was diluted with 100 μL of water and transferred to fresh 96 well plates. The concentration of compounds in the samples was analyzed by liquid chromatography tandem mass spectrometry (LC-MS/MS) method using discovery grade bio-analytical method, as applicable.
The mean apparent permeability (Papp, ×10^−6 cm/sec) of the test compounds, atenolol, propranolol and digoxin were calculated as follows:
where dq/dt=rate of transport (rate of transport of compound in the receiver compartment), C0=initial concentration in the donor compartment, A=surface area of the effective filter membrane.

| Permeability (Caco-2) Papp A2B | Permeability (Caco-2) Papp B2A | Structure (SMILES) |
| --- | --- | --- |
| 16.3 ×10⁻⁶ cm/s | 24 ×10⁻⁶ cm/s | CCCCC1CN(c2ccccc2)c2cc(SC)c(OCC(C)(OC)C(=O)O)cc2S(=O)(=O)N1C (single isomer, unassigned) [24, diastereomer 2] |
| 8.6 ×10⁻⁶ cm/s | 15.9 ×10⁻⁶ cm/s | CCCCC1CN(c2ccccc2)c2cc(SC)c(OCC(C)(OC)C(=O)O)cc2S(=O)(=O)N1C (single isomer, unassigned) [24, diastereomer 1] |
